The target of this experiment is MAPK14 (human) (UniProt Q16539). Put plainly: Inhibition of MAPK14 Kinase Activity.
MAPK14 (human), sequence (Q16539 whole entry, looked up): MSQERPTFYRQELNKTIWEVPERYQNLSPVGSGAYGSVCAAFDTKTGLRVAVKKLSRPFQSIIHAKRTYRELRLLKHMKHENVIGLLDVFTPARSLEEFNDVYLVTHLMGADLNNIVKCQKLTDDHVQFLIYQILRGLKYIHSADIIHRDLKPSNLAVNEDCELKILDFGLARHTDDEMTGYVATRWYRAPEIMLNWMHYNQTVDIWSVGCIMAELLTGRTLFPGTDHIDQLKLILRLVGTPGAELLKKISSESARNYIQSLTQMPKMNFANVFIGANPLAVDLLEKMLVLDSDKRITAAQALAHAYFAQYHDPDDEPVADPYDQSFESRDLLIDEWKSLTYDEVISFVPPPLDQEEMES
`COCCn1c(SC)nc(-c2ccc(F)cc2)c1-c1ccnc(NC(=O)CCC(C)C)c1` came in with a half-inhibitory concentration (IC50) of 179 nM.
As for `COCCn1c(SC)nc(-c2ccc(F)cc2)c1-c1ccnc(NC(=O)CCCc2ccc(OC)cc2)c1`, the figure is 97 nM; as for `COCCn1c(SC)nc(-c2ccc(F)cc2)c1-c1ccnc(NCC(C)c2ccccc2)c1` (stereo not given), 35 nM.
Consider `COCCn1c(SC)nc(-c2ccc(F)cc2)c1-c1ccnc(NC(=O)CCc2ccccc2)c1`, for which the half-maximal inhibitory concentration (IC50) stood at 63 nM.
Compound `COCCn1c(SC)nc(-c2ccc(F)cc2)c1-c1ccnc(NC(=O)C2CCCC2)c1` displayed an IC50 of 458 nM.
As for `COCCn1c(SC)nc(-c2ccc(F)cc2)c1-c1ccnc(NC(=O)c2ccc(OC)cc2)c1`, the figure is 392 nM; as for `COCCn1c(SC)nc(-c2ccc(F)cc2)c1-c1ccnc(NC(=O)CCCCc2ccccc2)c1`, 115 nM; as for `COCCn1c(SC)nc(-c2ccc(F)cc2)c1-c1ccnc(NC(=O)CCc2ccc(S(C)(=O)=O)cc2)c1`, 220 nM.
As for `COCCn1c(SC)nc(-c2ccc(F)cc2)c1-c1ccnc(NC(=O)CCC2CCCCC2)c1`, the figure is 196 nM; as for `COCCn1c(SC)nc(-c2ccc(F)cc2)c1-c1ccnc(NC(=O)CCc2ccc(OC)c(OC)c2)c1`, 216 nM; as for `COCCn1c(SC)nc(-c2ccc(F)cc2)c1-c1ccnc(NC(=O)C(Oc2ccccc2)C(C)C)c1` (stereo not given), 195 nM.
Regarding `COCCn1c(SC)nc(-c2ccc(F)cc2)c1-c1ccnc(NC(=O)CC2CCCCC2)c1`, the IC50 was determined as 219 nM.
As for `COCCn1c(SC)nc(-c2ccc(F)cc2)c1-c1ccnc(NC(=O)CCc2cccc(OC)c2OC)c1`, the figure is 91 nM.
In the case of `COCCn1c(SC)nc(-c2ccc(F)cc2)c1-c1ccnc(NC(=O)C2CCC2)c1`, the IC50 was 116 nM.
As for `COCCn1c(SC)nc(-c2ccc(F)cc2)c1-c1ccnc(N)c1`, the figure is 1420 nM; as for `CCCCC(=O)Nc1cc(-c2c(-c3ccc(F)cc3)nc(SC)n2CCOC)ccn1`, 83 nM; as for `COCCn1c(SC)nc(-c2ccc(F)cc2)c1-c1ccnc(NC(=O)CCc2ccccc2OC)c1`, 93 nM.
As for `CCC(C)C(=O)Nc1cc(-c2c(-c3ccc(F)cc3)nc(SC)n2CCOC)ccn1` (stereo not given), the figure is 311 nM.
As for `COCCn1c(SC)nc(-c2ccc(F)cc2)c1-c1ccnc(NC(=O)CC(C)C)c1`, the figure is 103 nM; as for `COCCn1c(SC)nc(-c2ccc(F)cc2)c1-c1ccnc(NC(=O)CCC2CCCC2)c1`, 224 nM; as for `COCCn1c(SC)nc(-c2ccc(F)cc2)c1-c1ccnc(NC(=O)CC2CCCC2)c1`, 108 nM.
As to `COCCn1c(SC)nc(-c2ccc(F)cc2)c1-c1ccnc(NC(=O)CCc2ccc(C)cc2)c1`, the half-inhibitory concentration (IC50) was 90 nM. The IC50 values of the last two compounds are within 1.5-fold of each other.
As for `COCCn1c(SC)nc(-c2ccc(F)cc2)c1-c1ccnc(NC(=O)C(C)(C)C)c1`, the figure is 1760 nM; as for `COCCn1c(SC)nc(-c2ccc(F)cc2)c1-c1ccnc(NC(=O)CCc2ccc(C(C)(C)C)cc2)c1`, 2450 nM; as for `COCCn1c(SC)nc(-c2ccc(F)cc2)c1-c1ccnc(NC(=O)Cc2ccc(OC)cc2)c1`, 213 nM.
As for `COCCn1c(SC)nc(-c2ccc(F)cc2)c1-c1ccnc(NC(=O)c2ccccc2)c1`, the figure is 244 nM; as for `COCCn1c(SC)nc(-c2ccc(F)cc2)c1-c1ccnc(NC(=O)CCCc2ccccc2)c1`, 115 nM.
As for `COCCn1c(SC)nc(-c2ccc(F)cc2)c1-c1ccnc(NC(=O)/C=C/c2ccccc2)c1`, the figure is 193 nM; as for `COCCn1c(SC)nc(-c2ccc(F)cc2)c1-c1ccnc(NC(=O)CCc2ccc(OC)cc2)c1`, 48 nM.
In turn, `COCCn1c(SC)nc(-c2ccc(F)cc2)c1-c1ccnc(NC(=O)CCc2ccc(OC)cc2OC)c1` returned an IC50 of 178 nM.
As for `COCCn1c(SC)nc(-c2ccc(F)cc2)c1-c1ccnc(NC(=O)CC(C)c2ccccc2)c1` (stereo not given), the figure is 60 nM; as for `COCCn1c(SC)nc(-c2ccc(F)cc2)c1-c1ccnc(NC(C)=O)c1`, 108 nM.
In turn, `COCCn1c(SC)nc(-c2ccc(F)cc2)c1-c1ccnc(NCCc2ccccc2)c1` registered an IC50 of 26 nM.
As for `COCCn1c(SC)nc(-c2ccc(F)cc2)c1-c1ccnc(NC(=O)C2CC2)c1`, the figure is 128 nM; as for `COCCn1c(SC)nc(-c2ccc(F)cc2)c1-c1ccnc(NC(=O)Cc2ccccc2)c1`, 386 nM.
As for `COCCn1c(SC)nc(-c2ccc(F)cc2)c1-c1ccnc(NC(=O)CCc2cccc(OC)c2)c1`, the figure is 93 nM.
As for `COCCn1c(SC)nc(-c2ccc(F)cc2)c1-c1ccnc(NC(=O)C[C@H](C)c2ccccc2)c1`, the figure is 133 nM; as for `COCCn1c(SC)nc(-c2ccc(F)cc2)c1-c1ccnc(NC(=O)C[C@@H](C)c2ccccc2)c1`, 114 nM; as for `COCCn1c(SC)nc(-c2ccc(F)cc2)c1-c1ccnc(NC(=O)CCc2ccc(SC)cc2)c1`, 254 nM.
In turn, `COCCn1c(SC)nc(-c2ccc(F)cc2)c1-c1ccnc(NC(=O)C(C)Cc2ccccc2)c1` (stereo not given) yielded a concentration for half-maximal inhibition (IC50) of 77 nM.
Turning to `COCCn1c(SC)nc(-c2ccc(F)cc2)c1-c1ccnc(NC(=O)C2CCCCC2)c1`, the IC50 amounted to 156 nM.
With `COCCn1c(SC)nc(-c2ccc(F)cc2)c1-c1ccnc(NC(=O)CCc2cc(OC)c(OC)c(OC)c2)c1`, the IC50 turned out to be 123 nM.
As for `COCCn1c(SC)nc(-c2ccc(F)cc2)c1-c1ccnc(NC(=O)CCc2ccc(OC)c(OC)c2OC)c1`, the figure is 84 nM.
As for `COCCn1c(SC)nc(-c2ccc(F)cc2)c1-c1ccnc(NC(=O)C(C)Oc2ccccc2)c1` (stereo not given), the figure is 103 nM; as for `COCCn1c(SC)nc(-c2ccc(F)cc2)c1-c1ccnc(NC(=O)[C@H]2C[C@@H]2c2ccccc2)c1`, 168 nM.

(Values after the Kinase Knowledgebase extract (Sharma et al. 2016).)
